Results: ChEMBL document CHEMBL1144627, “N-(3-(4-Hydroxyphenyl)-propenoyl)-amino acid tryptamides as SIRT2 inhibitors” (Bioorg Med Chem Lett, 2007)

Columns and labels:
[1] = molecular target: T1, NAD-dependent protein deacetylase sirtuin-1 (Homo sapiens) (UniProt Q96EB6); experiment: Inhibition of SIRT1 at 200 uM
T1 sequence (whole entry): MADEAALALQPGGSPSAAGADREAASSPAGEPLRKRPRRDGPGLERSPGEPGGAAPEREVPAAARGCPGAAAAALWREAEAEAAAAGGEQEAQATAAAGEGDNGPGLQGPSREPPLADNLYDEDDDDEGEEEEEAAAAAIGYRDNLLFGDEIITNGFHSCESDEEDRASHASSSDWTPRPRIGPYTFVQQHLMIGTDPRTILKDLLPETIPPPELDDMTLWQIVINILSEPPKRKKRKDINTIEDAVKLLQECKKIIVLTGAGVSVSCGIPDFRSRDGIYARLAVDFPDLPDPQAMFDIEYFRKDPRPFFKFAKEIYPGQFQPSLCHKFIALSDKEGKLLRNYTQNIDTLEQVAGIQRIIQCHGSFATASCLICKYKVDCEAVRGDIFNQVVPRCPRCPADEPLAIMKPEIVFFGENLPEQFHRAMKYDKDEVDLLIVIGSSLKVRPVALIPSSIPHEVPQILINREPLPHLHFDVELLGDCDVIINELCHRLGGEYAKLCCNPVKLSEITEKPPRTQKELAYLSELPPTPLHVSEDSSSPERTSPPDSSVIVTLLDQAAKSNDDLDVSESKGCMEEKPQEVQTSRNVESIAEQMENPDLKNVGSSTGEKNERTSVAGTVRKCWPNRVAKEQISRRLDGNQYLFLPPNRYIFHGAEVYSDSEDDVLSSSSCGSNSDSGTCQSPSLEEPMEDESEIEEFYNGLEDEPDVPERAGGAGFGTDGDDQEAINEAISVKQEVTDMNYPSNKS

[2] = molecular target: T2, NAD-dependent protein deacetylase sirtuin-2 (Homo sapiens) (UniProt Q8IXJ6); experiment: Inhibition of SIRT2 at 200 uM
T2 sequence (whole entry): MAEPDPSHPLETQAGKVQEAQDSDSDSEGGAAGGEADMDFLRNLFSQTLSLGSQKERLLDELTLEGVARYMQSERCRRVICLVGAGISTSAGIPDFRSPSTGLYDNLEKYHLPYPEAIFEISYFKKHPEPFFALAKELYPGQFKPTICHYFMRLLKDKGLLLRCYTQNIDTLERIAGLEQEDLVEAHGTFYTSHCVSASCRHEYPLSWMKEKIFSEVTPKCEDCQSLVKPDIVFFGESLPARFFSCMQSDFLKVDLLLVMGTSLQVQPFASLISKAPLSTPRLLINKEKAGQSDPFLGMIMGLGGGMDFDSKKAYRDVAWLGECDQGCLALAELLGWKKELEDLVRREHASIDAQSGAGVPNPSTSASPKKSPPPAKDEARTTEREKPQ

[3] = molecular target: T3, NAD-dependent protein deacetylase sirtuin-2 (Homo sapiens, UniProt Q8IXJ6); experiment: Inhibition of SIRT2
T3 sequence (Q8IXJ6 whole entry): T2 sequence (whole entry)

[4] = molecular target: T4, NAD-dependent protein deacetylase sirtuin-1 (Homo sapiens, UniProt Q96EB6); experiment: Inhibition of SIRT1
T4 sequence (Q96EB6 whole entry): T1 sequence (whole entry)

Row | inhibition [1] [%] | inhibition [2] [%] | IC50 [3] [µM] | IC50 [4] [µM] | Compound
1 | 7 | 67.5 | 80 |  | CC(C)(NC(=O)/C=C/c1ccc(O)cc1)C(=O)NCCc1c[nH]c2ccc(F)cc12
2 | 6.6 | 83.3 | 50 |  | CC(C)(NC(=O)/C=C/c1ccc(O)cc1)C(=O)NCCc1c[nH]c2ccccc12
3 | 3.2 | 8.5 |  |  | C[C@@H](NC(=O)/C=C/c1ccc(O)cc1)C(=O)NCCc1c[nH]c2ccccc12
4 | 10.3 | 55.4 | 99 |  | COc1ccc(/C=C/C(=O)NC(C)(C)C(=O)NCCc2c[nH]c3ccccc23)cc1
5 | 10.2 | 32.6 |  |  | CC(C)(NC(=O)/C=C/c1ccc(OCc2ccccc2)cc1)C(=O)NCCc1c[nH]c2ccccc12

The remaining lines, values behind:

Row | Compound | inhibition [1] [%] | inhibition [2] [%] | IC50 [3] [µM] | IC50 [4] [µM]
6 | O=C(/C=C/c1ccc(O)cc1)NCC(=O)NCCc1c[nH]c2ccccc12 | 9.9 | 44.3 |  | 
7 | O=C(/C=C/c1ccc(OCc2ccccc2)cc1)NC1(C(=O)NCCc2c[nH]c3ccccc23)CCNCC1 | 97 | 79.1 | 63 | 52
8 | C[C@H](NC(=O)/C=C/c1ccc(O)cc1)C(=O)NCCc1c[nH]c2ccccc12 | 17.7 | 88.6 | 47 | 
9 | O=C(/C=C/c1ccc(OCc2ccc(F)cc2)cc1)NC1(C(=O)NCCc2c[nH]c3ccc(F)cc23)CCNCC1 | 94.1 |  |  | 73
10 | NC(=O)C1CCCc2c1[nH]c1ccc(Cl)cc21 (stereo unspecified) | 98.9 | 89.4 |  | 
